According to US5644053A, “Penam derivatives” (Hoffmann-La Roche Inc., priority 1994, dated 1997):
Like-named read-outs stand apart in the source and are kept apart here.

Key:
E. cloacae = experiment: In vitro activity of combinations with selected antibiotics against β-lactamase over-producer strains, E. cloacae; format: cell-based; conditions: β-lactamase over-producer strain; combinations: constant inhibitor concentration 4 mg/l; unit assumed
Protocol: (§1) In vitro activity of combinations of Example 5c with selected
(§2) antibiotics against β-lactamase over-producer strains
(§3) (constant inhibitor concentration: 4 mg/l)

C. freundii = experiment: In vitro activity of combinations with selected antibiotics against β-lactamase over-producer strains, C. freundii; format: cell-based; conditions: β-lactamase over-producer strain; combinations: constant inhibitor concentration 4 mg/l; unit assumed
Protocol: as §1, §2, §3

Ps. aeruginosa = experiment: In vitro activity of combinations with selected antibiotics against β-lactamase over-producer strains, Ps. aeruginosa; format: cell-based; conditions: β-lactamase over-producer strain; combinations: constant inhibitor concentration 4 mg/l; unit assumed
Protocol: as §1, §2, §3

E. coli = experiment: In vitro activity of combinations with selected antibiotics against β-lactamase over-producer strains, E. coli; format: cell-based; conditions: β-lactamase over-producer strain; combinations: constant inhibitor concentration 4 mg/l; unit assumed
Protocol: as §1, §2, §3

β-lactamase [1] = target: β-lactamase (Citrobacter freundii, UniProt P05193); conditions: read-out: IC50 C. freundii 1982 (β-lactamase inhibition)
Sequence of β-lactamase (Citrobacter freundii, UniProt P05193) (P05193 21-381): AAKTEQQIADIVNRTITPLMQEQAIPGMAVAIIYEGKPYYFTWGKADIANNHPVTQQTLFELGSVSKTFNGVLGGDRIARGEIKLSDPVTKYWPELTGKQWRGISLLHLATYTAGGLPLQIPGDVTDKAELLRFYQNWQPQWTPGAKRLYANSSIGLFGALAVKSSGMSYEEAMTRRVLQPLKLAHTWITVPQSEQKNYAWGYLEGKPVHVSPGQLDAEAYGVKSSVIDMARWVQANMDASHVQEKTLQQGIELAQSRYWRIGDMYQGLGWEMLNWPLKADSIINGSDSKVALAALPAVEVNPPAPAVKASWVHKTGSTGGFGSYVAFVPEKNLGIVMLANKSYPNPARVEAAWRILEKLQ
Protocol: For this purpose, the corresponding strains are cultivated in Tryptic Soy Broth (Difco) and harvested by centrifugation in the last logarithmic growth phase (when necessary 50-100 mg/l of ampicillin are added to the medium towards the end of the log-phase in order to induce the β-lactamase). The thus-obtained bacterial mass is treated with 20 mM Tris-HCl buffer (pH 7.0); the cells are broken open with a French press while cooling. The mixture is centrifuged (20,000 r/min.) for 20-30 minutes and a clear crude extract is obtained.
(§4) The determination of the activity of the isolated β-lactamases can be carried out according to the method of O'-Callaghan, C. […] The requisite test batch contains per ml of water: 50 mM phosphate buffer (pH 7.0), 0.1 mM nitrocefin and sufficient enzyme (β-lactamase) to achieve a ΔA/min. of about 0.1.
(§5) The determination of the IC50 was effected by means of a graph.

β-lactamase [2] = format: biochemical; conditions: read-out: IC50 E. coli CF 102 (β-lactamase inhibition)
Protocol: Various β-lactamases can be isolated from penicillin- or cephalosporin-resistant bacterial strains such as Klebsiella pneumonia NCTC 418, Proteus vulgaris 1028, Bacillus licheniformis 749/C, Escherichia coil SN01 and Citrobacter freundii 1203. For this purpose, the corresponding strains are cultivated in Tryptic Soy Broth (Difco) and harvested by centrifugation in the last logarithmic growth phase (when necessary 50-100 mg/l of ampicillin are added to the medium towards the end of the log-phase in order to induce the β-lactamase). The thus-obtained bacterial mass is treated with 20 mM Tris-HCl buffer (pH 7.0); the cells are broken open with a French press while cooling. The mixture is centrifuged (20,000 r/min.) for 20-30 minutes and a clear crude extract is obtained.
as §4, §5

[3] = isolated enzyme, nitrocefin substrate, pH 7.0, 37° C., 15 min pre-incubation

CC(C)(O/N=C(\C(=O)N[C@@H]1C(=O)N2C(C(=O)[O-])=C(C[n+]3ccccc3)CS[C@H]12)c1csc(N)n1)C(=O)O [Ceftazidime] gave an MIC E. cloacae (E. cloacae) of over 64 µg/mL, an MIC C. freundii (C. freundii) of over 64 µg/mL and an MIC Ps. aeruginosa (Ps. aeruginosa) of 32 µg/mL. It also gave an MIC E. coli (E. coli) of 32 µg/mL.

C[C@]1(/C=C/C(N)=O)[C@H](C(=O)O)N2C(=O)C[C@H]2S1(=O)=O [6c (trans amide), Sodium (E)-(2S,3S,5R)-3-(2-carbamoyl-vinyl)-3-methyl-4.4.7-trioxo-4-thia-1-azabicyclo[3.2.0]heptane-2-carboxylate] showed an IC50 (β-lactamase [1]; [3]) of 2250 nM and an IC50 (β-lactamase [2]; [3]) of 54 nM.

In the case of CC1(C)S[C@@H]2[C@H](NC(=O)[C@H](NC(=O)c3cnc4cccnc4c3O)c3ccccc3)C(=O)N2[C@H]1C(=O)O [Apalcillin], the MIC E. cloacae (E. cloacae) is reported as over 128 µg/mL, the MIC C. freundii (C. freundii) is reported as over 128 µg/mL and the MIC Ps. aeruginosa (Ps. aeruginosa) is reported as 64 µg/mL. The MIC E. coli (E. coli) was over 64 µg/mL.

Work on CO/N=C(\C(=O)N[C@@H]1C(=O)N2C(C(=O)O)=C(CSc3nc(=O)c(=O)[nH]n3C)CS[C@H]12)c1csc(N)n1 [Ceftriaxone] yielded an MIC E. cloacae (E. cloacae) of over 64 µg/mL, an MIC C. freundii (C. freundii) of 64 µg/mL and an MIC Ps. aeruginosa (Ps. aeruginosa) of over 64 µg/mL. The MIC E. coli (E. coli) was 16 µg/mL.

C[C@]1(/C=C\C(N)=O)[C@H](C(=O)O)N2C(=O)C[C@H]2S1(=O)=O [6c (cis amide), Sodium (Z)-(2S,3S,5R)-3-(2-carbamoyl-vinyl)-3-methyl-4,4,7-trioxo-4-thia-1-aza-bicyclo[3.2.0]heptane-2-carboxylate] gave an IC50 (β-lactamase [1]; [3]) of 4340 nM and an IC50 (β-lactamase [2]; pH 7) of 130 nM.

C[C@]1(/C=C\C#N)[C@H](C(=O)O)N2C(=O)C[C@H]2S1(=O)=O [5c (cis nitrile), Sodium (Z)-(2S,3S,5R)-3-(2-cyanoethenyl)-3-methyl-4,4,7-trioxo-4-thia-1-aza-bicyclo [3.2.0]heptane-2-carboxylate] was tested, and the IC50 (β-lactamase [2]; pH 7) was 126 nM.

CCN1CCN(C(=O)N[C@@H](C(=O)N[C@@H]2C(=O)N3[C@@H]2SC(C)(C)[C@@H]3C(=O)O)c2ccccc2)C(=O)C1=O [Piperacillin] was tested, and the MIC E. cloacae (E. cloacae) was over 128 µg/mL, the MIC C. freundii (C. freundii) was over 128 µg/mL and the MIC Ps. aeruginosa (Ps. aeruginosa) was over 64 µg/mL. For the same compound, the MIC E. coli (E. coli) was over 64 µg/mL.

C[C@]1(/C=C/C#N)[C@H](C(=O)O)N2C(=O)C[C@H]2S1(=O)=O [5c (trans nitrile), Sodium (E)-(2S,3S,5R)-3-(2-cyanoethenyl)-3-methyl-4,4,7-trioxo-4-thia-1-aza-bicyclo[3.2.0]heptane-2-carboxylate] showed an IC50 (β-lactamase [2]; pH 7) of 681 nM.

In the case of C[C@]1(Cn2ccnn2)[C@H](C(=O)O)N2C(=O)C[C@H]2S1(=O)=O [Tazobactam], the IC50 (β-lactamase [1]; pH 7) is reported as 900 nM and the IC50 (β-lactamase [2]; [3]) is reported as 15 nM.

For CCOC(=O)/C=C/[C@@]1(C)[C@H](C(=O)O)N2C(=O)C[C@H]2S1(=O)=O [2c (trans ethyl ester), Sodium (E)-(2S,3S,5R)-3-(2-ethoxycarbonyl-vinyl)-3-methyl-4,4,7-trioxo-4-thia-1-aza-bicyclo[3.2.0]heptane-2-carboxylate], the IC50 (β-lactamase [2]; pH 7) was 456 nM.
